Source: ChEMBL document CHEMBL5137128, “Daphnoretin Arrests the Cell Cycle and Induces Apoptosis in Human Breast Cancer Cells” (J Nat Prod, 2022)
Activity calls are given as the source filed them. No cut-off for these calls is given here.

What was measured:
MCF7 [1] = experiment: Induction of cell cycle arrest in human MCF7 cells assessed as G2/M phase cells at 1 uM incubated for 24 hrs by propidium iodide staining based flow cytometry analysis (reference value: 0.86 %); type: functional
MCF7 [2] = experiment: Induction of cell cycle arrest in human MCF7 cells assessed as accumulation of S phase cells at 1 uM incubated for 24 hrs by propidium iodide staining based flow cytometry analysis (reference value: 27.84 %); type: functional
MCF7 [3] = experiment: Induction of cell cycle arrest in human MCF7 cells assessed as G0-G1 phase cells at 1 uM incubated for 24 hrs by propidium iodide staining based flow cytometry analysis (reference value: 71.30 %); type: functional
MCF7 [4] = experiment: Antiproliferative activity human MCF7 cells assessed as inhibition of cell proliferation incubated for 24 hrs by MTT assay; type: functional, cell-based; conditions: MCF7, 24 h
MDA-MB-231 [5] = experiment: Antiproliferative activity human MDA-MB-231 cells assessed as inhibition of cell proliferation incubated for 24 hrs by MTT assay; type: functional, cell-based; conditions: MDA-MB-231, 24 h
MCF7 [6] = experiment: Antiproliferative activity human MCF7 cells assessed as inhibition of cell proliferation at 0.1 to 8 uM incubated for 48 hrs by MTT assay; type: functional, cell-based; conditions: dose 0.1-8 µM
MDA-MB-231 [7] = experiment: Antiproliferative activity human MDA-MB-231 cells assessed as inhibition of cell proliferation at 0.1 to 8 uM incubated for 48 hrs by MTT assay; type: functional, cell-based; conditions: dose 0.1-8 µM
MCF7 [8] = experiment: Induction of morphological changes in human MCF7 cells assessed as decrease in cell numbers at 1 to 4 uM by electron microscopic analysis; type: functional, cell-based; conditions: dose 1-4 µM
MDA-MB-231 [9] = experiment: Induction of morphological changes in human MDA-MB-231 cells assessed as decrease in cell numbers at 0.5 to 2 uM by electron microscopic analysis; type: functional, cell-based; conditions: dose 0.5-2 µM
MCF7 [10] = experiment: Induction of morphological changes in human MCF7 cells assessed as deformed cells at 1 to 4 uM by electron microscopic analysis; type: functional, cell-based; conditions: dose 1-4 µM
MDA-MB-231 [11] = experiment: Induction of morphological changes in human MDA-MB-231 cells assessed as deformed cells at 0.5 to 2 uM by electron microscopic analysis; type: functional, cell-based; conditions: dose 0.5-2 µM
MCF7 [12] = experiment: Induction of morphological changes in human MCF7 cells assessed as cell shrinkage at 1 to 4 uM by electron microscopic analysis; type: functional, cell-based; conditions: dose 1-4 µM
MDA-MB-231 [13] = experiment: Induction of morphological changes in human MDA-MB-231 cells assessed as cell shrinkage at 0.5 to 2 uM by electron microscopic analysis; type: functional, cell-based; conditions: dose 0.5-2 µM
MCF7 [14] = experiment: Induction of cell cycle arrest in human MCF7 cells assessed as G0-G1 phase cells at 2 uM incubated for 24 hrs by propidium iodide staining based flow cytometry analysis (reference value: 71.30 %); type: functional
MCF7 [15] = experiment: Induction of cell cycle arrest in human MCF7 cells assessed as accumulation of S phase cells at 2 uM incubated for 24 hrs by propidium iodide staining based flow cytometry analysis (reference value: 27.84 %); type: functional
MCF7 [16] = experiment: Induction of cell cycle arrest in human MCF7 cells assessed as G2/M phase cells at 2 uM incubated for 24 hrs by propidium iodide staining based flow cytometry analysis (reference value: 0.86 %); type: functional
MCF7 [17] = experiment: Induction of cell cycle arrest in human MCF7 cells assessed as G0-G1 phase cells at 4 uM incubated for 24 hrs by propidium iodide staining based flow cytometry analysis (reference value: 71.30 %); type: functional
MCF7 [18] = experiment: Induction of cell cycle arrest in human MCF7 cells assessed as accumulation of S phase cells at 4 uM incubated for 24 hrs by propidium iodide staining based flow cytometry analysis (reference value: 27.84 %); type: functional
MCF7 [19] = experiment: Induction of cell cycle arrest in human MCF7 cells assessed as G2/M phase cells at 4 uM incubated for 24 hrs by propidium iodide staining based flow cytometry analysis (reference value: 0.86 %); type: functional
MCF7 [20] = experiment: Induction of cell cycle arrest in human MCF7 cells assessed as downregulation of CDK2 expression at 1 to 4 uM measured upto 24 hrs by Western blot analysis relative to control; type: functional, cell-based; conditions: dose 1-4 µM
MCF7 [21] = experiment: Induction of cell cycle arrest in human MCF7 cells assessed as downregulation of cyclin E expression at 1 to 4 uM measured upto 24 hrs by Western blot analysis relative to control; type: functional, cell-based; conditions: dose 1-4 µM
MDA-MB-231 [22] = experiment: Induction of cell cycle arrest in human MDA-MB-231 cells assessed as G0-G1 phase cells at 0.5 uM incubated for 24 hrs by propidium iodide staining based flow cytometry analysis (reference value: 66.84 %); type: functional
MDA-MB-231 [23] = experiment: Induction of cell cycle arrest in human MDA-MB-231 cells assessed as accumulation of S phase cells at 0.5 uM incubated for 24 hrs by propidium iodide staining based flow cytometry analysis (reference value: 28.71 %); type: functional
MDA-MB-231 [24] = experiment: Induction of cell cycle arrest in human MDA-MB-231 cells assessed as G2/M phase cells at 0.5 uM incubated for 24 hrs by propidium iodide staining based flow cytometry analysis (reference value: 4.44 %); type: functional
MDA-MB-231 [25] = experiment: Induction of cell cycle arrest in human MDA-MB-231 cells assessed as G0-G1 phase cells at 1 uM incubated for 24 hrs by propidium iodide staining based flow cytometry analysis (reference value: 66.84 %); type: functional
MDA-MB-231 [26] = experiment: Induction of cell cycle arrest in human MDA-MB-231 cells assessed as accumulation of S phase cells at 1 uM incubated for 24 hrs by propidium iodide staining based flow cytometry analysis (reference value: 28.71 %); type: functional
MDA-MB-231 [27] = experiment: Induction of cell cycle arrest in human MDA-MB-231 cells assessed as G2/M phase cells at 1 uM incubated for 24 hrs by propidium iodide staining based flow cytometry analysis (reference value: 4.44 %); type: functional
MDA-MB-231 [28] = experiment: Induction of cell cycle arrest in human MDA-MB-231 cells assessed as G0-G1 phase cells at 2 uM incubated for 24 hrs by propidium iodide staining based flow cytometry analysis (reference value: 66.84 %); type: functional
MDA-MB-231 [29] = experiment: Induction of cell cycle arrest in human MDA-MB-231 cells assessed as accumulation of S phase cells at 2 uM incubated for 24 hrs by propidium iodide staining based flow cytometry analysis (reference value: 28.71 %); type: functional
MDA-MB-231 [30] = experiment: Induction of cell cycle arrest in human MDA-MB-231 cells assessed as G2/M phase cells at 2 uM incubated for 24 hrs by propidium iodide staining based flow cytometry analysis (reference value: 4.44 %); type: functional
MDA-MB-231 [31] = experiment: Induction of cell cycle arrest in human MDA-MB-231 cells assessed as downregulation of CDK2 expression at 0.5 to 2 uM measured upto 24 hrs by Western blot analysis relative to control; type: functional, cell-based; conditions: dose 0.5-2 µM
MDA-MB-231 [32] = experiment: Induction of cell cycle arrest in human MDA-MB-231 cells assessed as downregulation of cyclin E expression at 0.5 to 2 uM measured upto 24 hrs by Western blot analysis relative to control; type: functional, cell-based; conditions: dose 0.5-2 µM
MCF7 [33] = experiment: Induction of apoptosis in human MCF7 cells assessed as chromatin condensation at 1 to 4 uM incubated for 24 hrs by Hoechst 33258 staining based light microscopic analysis; type: functional, cell-based; conditions: dose 1-4 µM
MCF7 [34] = experiment: Induction of apoptosis in human MCF7 cells assessed as nuclear condensation at 1 to 4 uM incubated for 24 hrs by Hoechst 33258 staining based light microscopic analysis; type: functional, cell-based; conditions: dose 1-4 µM
MCF7 [35] = experiment: Induction of apoptosis in human MCF7 cells assessed as apoptotic bodies at 1 to 4 uM incubated for 24 hrs by Hoechst 33258 staining based light microscopic analysis; type: functional, cell-based; conditions: dose 1-4 µM
MCF7 [36] = experiment: Induction of apoptosis in human MCF7 cells assessed as increase in total apoptotic rate at 1 to 4 uM incubated for 24 hrs by propidium iodide staining based flow cytometric analysis; type: functional, cell-based; conditions: dose 1-4 µM
MDA-MB-231 [37] = experiment: Induction of apoptosis in human MDA-MB-231 cells assessed as chromatin condensation at 0.5 to 2 uM incubated for 24 hrs by Hoechst 33258 staining based light microscopic analysis; type: functional, cell-based; conditions: dose 0.5-2 µM
MDA-MB-231 [38] = experiment: Induction of apoptosis in human MDA-MB-231 cells assessed as nuclear condensation at 0.5 to 2 uM incubated for 24 hrs by Hoechst 33258 staining based light microscopic analysis; type: functional, cell-based; conditions: dose 0.5-2 µM
MDA-MB-231 [39] = experiment: Induction of apoptosis in human MDA-MB-231 cells assessed as apoptotic bodies at 0.5 to 2 uM incubated for 24 hrs by Hoechst 33258 staining based light microscopic analysis; type: functional, cell-based; conditions: dose 0.5-2 µM
MDA-MB-231 [40] = experiment: Induction of apoptosis in human MDA-MB-231 cells assessed as increase in total apoptotic rate at 0.5 to 2 uM incubated for 24 hrs by propidium iodide staining based flow cytometry analysis relative to control; type: functional, cell-based; conditions: dose 0.5-2 µM
MCF7 [41] = experiment: Induction of apoptosis in human MCF7 cells assessed as decrease in Bcl-2 level at 1 to 4 uM measured upto 24 hrs by Western blot analysis; type: functional, cell-based; conditions: dose 1-4 µM
MCF7 [42] = experiment: Induction of apoptosis in human MCF7 cells assessed as increase in cleaved caspase-9 level at 1 to 4 uM measured upto 24 hrs by Western blot analysis; type: functional, cell-based; conditions: dose 1-4 µM
MCF7 [43] = experiment: Induction of apoptosis in human MCF7 cells assessed as increase in cleaved caspase-3 level at 1 to 4 uM measured upto 24 hrs by Western blot analysis; type: functional, cell-based; conditions: dose 1-4 µM
MCF7 [44] = experiment: Induction of apoptosis in human MCF7 cells assessed as increase in Bax level at 1 to 4 uM measured upto 24 hrs by Western blot analysis; type: functional, cell-based; conditions: dose 1-4 µM
MDA-MB-231 [45] = experiment: Induction of apoptosis in human MDA-MB-231 cells assessed as decrease in Bcl-2 level at 0.5 to 2 uM measured upto 24 hrs by Western blot analysis; type: functional, cell-based; conditions: dose 0.5-2 µM
MDA-MB-231 [46] = experiment: Induction of apoptosis in human MDA-MB-231 cells assessed as increase in cleaved caspase-9 level at 0.5 to 2 uM measured upto 24 hrs by Western blot analysis; type: functional, cell-based; conditions: dose 0.5-2 µM
MDA-MB-231 [47] = experiment: Induction of apoptosis in human MDA-MB-231 cells assessed as increase in cleaved caspase-3 level at 0.5 to 2 uM measured upto 24 hrs by Western blot analysis; type: functional, cell-based; conditions: dose 0.5-2 µM
MDA-MB-231 [48] = experiment: Induction of apoptosis in human MDA-MB-231 cells assessed as increase in Bax level at 0.5 to 2 uM measured upto 24 hrs by Western blot analysis; type: functional, cell-based; conditions: dose 0.5-2 µM
MCF7 [49] = experiment: Inhibition of PI3K phosphorylation in human MCF7 cells at 1 to 4 uM by Western blot analysis; type: cell-based; conditions: dose 1-4 µM
MCF7 [50] = experiment: Inhibition of AKT phosphorylation in human MCF7 cells at 1 to 4 uM by Western blot analysis; type: cell-based; conditions: dose 1-4 µM
MDA-MB-231 [51] = experiment: Inhibition of PI3K phosphorylation in human MDA-MB-231 cells at 0.5 to 2 uM by Western blot analysis; type: cell-based; conditions: dose 0.5-2 µM
MDA-MB-231 [52] = experiment: Inhibition of AKT phosphorylation in human MDA-MB-231 cells at 0.5 to 2 uM by Western blot analysis; type: cell-based; conditions: dose 0.5-2 µM

- IC50 (MCF7 [4]): 2000 nM
- IC50 (MDA-MB-231 [5]): 1000 nM
Structure (SMILES): COc1cc2cc(Oc3ccc4ccc(=O)oc4c3)c(=O)oc2cc1O [DAPHNORETIN]
- Activity (MCF7 [1]): 1.92%
- Activity (MCF7 [2]): 38.59%
- Activity (MCF7 [3]): 59.49%
- Activity (MCF7 [6]): Active
- Activity (MDA-MB-231 [7]): Active
- Activity (MCF7 [8]): Active
- Activity (MDA-MB-231 [9]): Active
- Activity (MCF7 [10]): Active
- Activity (MDA-MB-231 [11]): Active
- Activity (MCF7 [12]): Active
- Activity (MDA-MB-231 [13]): Active
- Activity (MCF7 [14]): 50.95%
- Activity (MCF7 [15]): 43.73%
- Activity (MCF7 [16]): 5.32%
- Activity (MCF7 [17]): 51.27%
- Activity (MCF7 [18]): 46.53%
- Activity (MCF7 [19]): 2.2%
- Activity (MCF7 [20]): Active
- Activity (MCF7 [21]): Active
- Activity (MDA-MB-231 [22]): 53.37%
- Activity (MDA-MB-231 [23]): 37.3%
- Activity (MDA-MB-231 [24]): 9.33%
- Activity (MDA-MB-231 [25]): 46%
- Activity (MDA-MB-231 [26]): 45.58%
- Activity (MDA-MB-231 [27]): 8.43%
- Activity (MDA-MB-231 [28]): 36.99%
- Activity (MDA-MB-231 [29]): 47.72%
- Activity (MDA-MB-231 [30]): 15.29%
- Activity (MDA-MB-231 [31]): Active
- Activity (MDA-MB-231 [32]): Active
- Activity (MCF7 [33]): Active
- Activity (MCF7 [34]): Active
- Activity (MCF7 [35]): Active
- Activity (MCF7 [36]): Active
- Activity (MDA-MB-231 [37]): Active
- Activity (MDA-MB-231 [38]): Active
- Activity (MDA-MB-231 [39]): Active
- Activity (MDA-MB-231 [40]): Active
- Activity (MCF7 [41]): Active
- Activity (MCF7 [42]): Active
- Activity (MCF7 [43]): Active
- Activity (MCF7 [44]): Active
- Activity (MDA-MB-231 [45]): Active
- Activity (MDA-MB-231 [46]): Active
- Activity (MDA-MB-231 [47]): Active
- Activity (MDA-MB-231 [48]): Active
- inhibition (MCF7 [49]): Active
- inhibition (MCF7 [50]): Active
- inhibition (MDA-MB-231 [51]): Active
- inhibition (MDA-MB-231 [52]): Active
